Measurements reported in US20250230129A1, “POLYAMIDE COMPOUNDS, METHOD FOR PREPARING SAME, AND MEDICAL USE THEREOF” (priority 2022, published 2025).
Read-outs that look alike come from different tables or passages of the source. Square brackets hold non-standard residues; d marks the D form. Peptide text beside a SMILES is read from it. * marks the point of attachment. Gly(N-(2R-Ph-propyl)) = C[C@@H](CNCC(=O)O)c1ccccc1; Piperidin1yl(4-NH2,4-COOH) = NC1(C(=O)O)CCN(*)CC1; dPhLac = O=C(O)[C@H](O)Cc1ccccc1; X4 = COC(=O)NC1CCN(*)CC1

Columns and labels:
κ receptor = κ receptor (Homo sapiens (Human), UniProt P41145); assay: Competitive Kappa receptor binding assay (3H-U69593)
μ receptor = μ receptor (Homo sapiens (Human), UniProt P35372); assay: μ receptor affinity assay (3H-DAMGO); format: binding
δ receptor = δ receptor (Homo sapiens (Human), UniProt P41143); assay: Competitive delta receptor binding assay (3H-DADLE)
[1] = biological target: κ-opioid receptor (Kappa) (Homo sapiens (Human), UniProt P41145); assay: In vitro functional assay, HTRF cAMP-Gi in CHO-K1-OPRK1 cells; format: cell-based
ICR mice [2] = assay: Acetic acid writhing test in mice; format: in vivo; conditions: Mus musculus, read-out: Acetic acid writhing in mice ED50
[3] = PK and blood-brain barrier permeability in mice; format: in vivo; conditions: male ICR mice, intravenous 1 mg/kg; for AUC(0-inf) / Vd / clearance / half-life / Cmax: plasma; for half-life: read-out: t½ (converted)
Protocol: The compounds of the present disclosure were investigated for pharmacokinetic characteristics and blood-brain barrier permeability in mice.
Healthy male ICR mice were randomly grouped, 6 animals per group. For each test compound, 3 groups of animals were used. The first group of animals was used for collecting blood and brain 5 min after the administration, and the second group of animals and the third group of animals were used for cross blood collection at subsequent time points; each test compound was intravenously administered (1 mg/kg) to corresponding groups of mice, and blood sampling via submaxillary veins of the mice was carried out at different time points. Drug contents in plasma and brain tissues at different time points were measured by an LC-MS/MS method, the brain-to-blood ratio B/P was calculated by using EXCEL software, and pharmacokinetic parameters were calculated by using DAS3.0 software.

ICR mice [4] = assay: Sedation safety window; conditions: sedation side effect ED50 (autonomic activity test)/efficacy ED50 (acetic acid writhing test)
[5] = Autonomous activity test in mice; conditions: male, ICR, mouse, in vivo, iv
hERG = hERG (Homo sapiens (Human), UniProt Q12809); assay: in vitro; conditions: pH 7.4
ICR mice [6] = conditions: mouse, in vivo
in vivo = conditions: male, ICR, mouse, iv
[7] = single intravenous injection, male ICR mice
[8] = blood and brain 5 min after administration

Structure (SMILES) | Ki (κ receptor) [nM] | Ki (μ receptor) [nM] | Ki (δ receptor) [nM] | EC50 [1] [nM] | ED50 (ICR mice [2]; [7]) [mg/kg] | B/P (brain-to-blood ratio) [3, 8] | AUC(0-inf) ([3]; mouse) [ng·h/mL] | Vd ([3]; mouse) [L/kg] | clearance ([3]; mouse) [mL/min/kg] | half-life ([3]; mouse) [min] | Cmax ([3]; mouse) [ng/mL] | Safety window (ICR mice [4]) | ED50 at 30 min [5] [mg/kg] | inhibition at 10 µM (hERG) [%] | Kp at 5 min ([3]; mouse, brain/plasma, blood and brain 5 min after administration, read-out: B/P (brain-to-blood ratio)) | ED50 (ICR mice [2]; iv) [mg/kg] | Safety window (ICR mice [6]) | ED50 (in vivo) [mg/kg]
CC(C)C[C@@H](NC(=O)[C@@H](Cc1ccccc1)NC(=O)N(CCN)Cc1ccccc1)C(=O)N[C@H](CCCCN)C(=O)N1CCS(=O)(=O)CC1 [Compound 21] | 0.33 | > 1000 | > 1000 | 0.68 | 0.5 | 0.010 | 2670 | 0.63 | 6.33 | 69 | 3460 | 2.82 | 1.42 |  |  |  |  | 
COC(=O)NC1CCN(C(=O)[C@@H](CCCCN)NC(=O)[C@@H](CC(C)C)NC(=O)[C@@H](Cc2ccccc2)NC(=O)[C@H](O)Cc2ccccc2)CC1 [Compound 11] (H-[dPhLac][dF][dL][dK]-X4) | 0.94 | > 1000 | > 1000 | 5.1 | 1.82 |  |  |  |  |  |  | 5.27 | 9.6 |  |  |  |  | 
CC(C)C[C@@H](NC(=O)[C@@H](Cc1ccccc1)NC(=O)C[C@@H](N)c1ccccc1)C(=O)N[C@H](CCCCN)C(=O)N1CCC(N)(C(=O)O)CC1 [Compound 4-0, 4-amino-1-[(2R)-6-amino-2-[(2R)-2-[(2R)-2-((3R)-3-amino-3-phenylpropionylamino)-3-phenylpropionylamino]-4-methylpentanoylamino]hexanoyl]piperidine-4-carboxylic acid] | 2.8 | > 1000 | > 1000 | 3.62 | 1.14 |  |  |  |  |  |  | 6.44 | 7.34 |  |  |  |  | 
COC(=O)C1(N)CCN(C(=O)[C@@H](CCCCN)NC(=O)[C@@H](CC(C)C)NC(=O)[C@@H](Cc2ccccc2)NC(=O)N(CCN)Cc2ccccc2)CC1 [Compound 13-2, methyl 4-amino-1-[(2R)-6-amino-2-[(2R)-2-[(2R)-2-{[2-aminoethyl(benzyl)carbamoyl]amino}-3-phenylpropionylamino]-4-methylpentanoylamino]hexanoyl]piperidine-4-carboxylate] | 0.13 | > 1000 | > 1000 | 0.13 | 0.17 | BQL** | 1690 | 0.63 | 10 | 43.2 | 2930 | 16.18 | 2.75 |  |  |  |  | 
CC(C)C[C@@H](NC(=O)[C@@H](Cc1ccccc1)NC(=O)N(Cc1ccccc1)C1CCNC1)C(=O)N[C@H](CCCCN)C(=O)N1CCC(N)(C(=O)O)CC1 (stereo partly shown) [Compound 27] | 0.88 | > 1000 | > 1000 | 0.87 | 0.88 | 0.010 | 1160 | 0.63 | 14.7 | 30 | 2320 | 5.22 | 4.59 |  |  |  |  | 
CC(C)C[C@@H](NC(=O)[C@@H](Cc1ccccc1)NC(=O)CNC[C@H](C)c1ccccc1)C(=O)N[C@H](CCCCN)C(=O)N1CCC(N)(C(=O)O)CC1 [Comparative Example 1B, reference compound] (H-[Gly(N-(2R-Ph-propyl))][dF][dL][dK]-{Piperidin1yl(4-NH2,4-COOH)}) |  |  |  |  | 0.25 |  |  |  |  |  |  | 2.36 | 0.59 |  |  |  |  | 
CC(C)C[C@@H](NC(=O)[C@@H](Cc1ccccc1)NC(=O)N(CCN)Cc1ccccc1)C(=O)N[C@H](CCCCN)C(=O)N1CCC(N)(C(=O)O)CC1 [Compound 13] | 0.13 | > 1000 | > 1000 | 0.52 | 0.23 | 0.015 | 1350 | 0.38 | 12.3 | 21 | 2540 | 12.30 | 2.83 | 0.8 |  |  |  | 
COC(=O)NC1CCN(C(=O)[C@@H](CCCCN)NC(=O)[C@@H](CC(C)C)NC(=O)[C@@H](Cc2ccccc2)NC(=O)N(C)C(CN)c2ccccc2)CC1 (stereo partly drawn) [Compound 12, methyl N-{1-[(2R)-6-amino-2-[(2R)-2-[(2R)-2-{[(2-amino-1-phenylethyl)(methyl)carbamoyl]amino}-3-phenylpropionylamino]-4-methylpentanoylamino]hexanoyl]piperidin-4-yl}carbamate] | 0.53 | > 1000 | > 1000 | 0.17 |  |  | 3680 | 0.54 | 4.67 | 85.2 | 2260 |  |  | 2.13 | 0.008 |  |  | 
CC(=O)N=S1(=O)CCN(C(=O)[C@@H](CCCCN)NC(=O)[C@@H](CC(C)C)NC(=O)[C@@H](Cc2ccccc2)NC(=O)[C@H](N)Cc2ccccc2)CC1 [Compound 3B] | 1.05 | > 1000 | > 1000 | 1 |  |  |  |  |  |  |  |  |  | 1.13 |  | 0.42 | 7.74 | 
CC(C)C[C@@H](NC(=O)[C@@H](Cc1ccccc1)NC(=O)N(CCN)Cc1ccccc1)C(=O)N[C@H](CCCCN)C(=O)N1CCC2(CC1)NC(=O)NC2=O [Compound 29] | 0.63 | > 1000 | > 1000 | 0.058 | 0.41 | 0.010 | 3340 | 0.32 | 5.17 | 44.4 | 4710 | 3.28 | 1.35 |  |  |  |  | 
COC(=O)NC1CCN(C(=O)[C@@H](CCCCN)NC(=O)[C@@H](CC(C)C)NC(=O)[C@@H](Cc2ccccc2)NC(=O)[C@H](N)Cc2ccccc2)CC1 [Compound 1A] | 0.4 | > 1000 | > 1000 | 0.05 | 0.38 |  |  |  |  |  |  |  | 1.08 | -0.94 |  |  | 2.84 | 
CC(C)C[C@@H](NC(=O)[C@@H](Cc1ccccc1)NC(=O)[C@H](N)Cc1ccccc1)C(=O)N[C@H](CCCCN)C(=O)N1CCC2(CC1)OC(=O)Nc1ncccc12 [Compound 4A, (2R)—N-[(2R)-6-amino-1-oxo-1-{2′-oxo-1′H-spiro[piperidine-4,4′-pyrido[2,3-d][1,3]oxazin]-1-yl}hex-2-yl]-2-[(2R)-2-[(2R)-2-amino-3-phenylpropionylamino]-3-phenylpropionylamino]-4-methylpentanamide] | 0.3 | > 1000 | > 1000 | 0.2 | 0.41 |  |  |  |  |  |  | 3.05 | 1.25 | 0.9 |  |  |  | 
CC(C)C[C@@H](NC(=O)[C@@H](Cc1ccccc1)NC(=O)[C@H](N)Cc1ccccc1)C(=O)N[C@H](CCCCN)C(=O)N1CCS(=N)(=O)CC1 [Compound 1B, (R)—N—((R)-6-amino-1-(1-imino-1-oxo-1λ6-thiomorpholine)-1-oxohex-2-yl)-2-((R)-2-((R)-2-amino-3-phenylpropionylamino)-3-phenylpropionylamino)-4-methylpentanamide] | 0.42 | > 1000 | > 1000 | 0.52 |  |  |  |  |  |  |  |  |  | 1.2 |  | 0.2 | 2.50 | 0.5
CC(C)C[C@@H](NC(=O)[C@@H](Cc1ccccc1)NC(=O)N(C)C(CN)c1ccccc1)C(=O)N[C@H](CCCCN)C(=O)N1CCNCC1 (stereo partly shown) [Compound 38] | 0.17 | > 1000 | > 1000 | 0.54 |  |  |  |  |  |  |  |  |  |  |  |  |  | 
CC(C)C[C@@H](NC(=O)[C@@H](Cc1ccccc1)NC(=O)N(C)C(CN)c1ccccc1)C(=O)N[C@H](CCCCN)C(=O)N1CCS(=N)(=O)CC1 (stereo partly shown) [Compound 10] | 0.86 | > 1000 | > 1000 | 1.1 |  | 0.007 | 4010 | 0.29 | 4.17 | 49.2 | 3220 |  |  |  |  |  |  | 
